Measurements taken from patent US20250066409A1, “DERIVATIVE OF PENTACYCLIC TRITERPENOIDAL SAPONIN AND ITS PREPARATION METHOD AND APPLICATION” (SOOCHOW UNIVERSITY, priority 2022, published 2025).

How the values were obtained:
[1] = system: IL-6; test: IL-6 release from LPS-stimulated THP-1 cells, ELISA; type: cell-based; settings: pretreatment 1 h, LPS 1 μg/mL 24 h, P<0.05
Method: (§1) THP-1 cells were seeded in a 6-well plate at 2×10^5 cells/well and cultured conventionally. After the cells reached 80%, they were induced with 100 ng/ml of PMA for 12 h, and then the original medium was discarded, and new complete medium was added. The control group was pretreated with B4 (0.1, 1, 10 μM) for 1 h, and the experimental group was pretreated with A3-6 (0.1, 1, 10 μM) for 1 h. After 1 h, the other groups were removed from the blank group and incubated with 1 μg/mL LPS for 24 h. The culture supernatant was collected, and the IL-6 and TNF-α contents were finally determined and calculated using ELISA kits step by step according to their instructions. The effect of A3-6 on the release of inflammatory factors was tested by ELISA kits.

[2] = system: TNF-α; test: TNF-α release from LPS-stimulated THP-1 cells, ELISA; type: cell-based; settings: pretreatment 1 h, LPS 1 μg/mL 24 h, P<0.05
Method: as §1

[3] = system: DSS-induced colitis mice; test: DSS-induced colitis in mice (DAI score, colon length); type: in vivo, ICR mice; settings: B4 group (100 mg/kg by gavage), 5% DSS mice
Method: ICR mice were fed normally for 3 days, with free access to water and food during the feeding period. After weighing, the mice were randomly divided into groups, including normal group, model group (DSS group), A3-6 (15, 30, 60 mg/kg) group, A3-6 (60 mg/kg)+DADA (50 mg/kg) group, and positive drug B4 (100 mg/kg) group. A3-6 was administered by gavage with hydroxypropyl β-cyclodextrin (1:3), B4 was dissolved in water and administered by gavage, and DADA (50 mg/kg) was injected intraperitoneally, once a day. The day before modeling, the weight was weighed and A3-6, DADA and B4 were pre-administered according to body weight. After 24 hours of administration, DSS was dissolved in the drinking water for mice. The mice in the model group and the administration group were continuously given 5% DSS for 8 days and weighed every day. […] After the 9th day of administration, the mice were sacrificed, blood and colon were collected, and the length of the colon was measured.
A3-6 (15 mg/kg, 30 mg/kg and 60 mg/kg) or B4 (100 mg/kg) were administered by gavage once daily for 9 days. […] The DAI scores of each group of mice were calculated daily according to the scoring requirements.
The mice colitis model was constructed using 5% DSS to evaluate the therapeutic effect of A3-6 on inflammatory bowel disease (IBD)-. […] The DAI score of the mice was comprehensively evaluated.

Structure (SMILES): C=C(C)[C@@H]1CC[C@]2(C(=O)O[C@@H]3O[C@H](CO[C@@H]4O[C@H](CO)[C@@H](O[C@@H]5O[C@@H](C)[C@H](O)[C@@H](O)[C@H]5O)[C@H](O)[C@H]4O)[C@@H](O)[C@H](O)[C@H]3O)CC[C@]3(C)[C@H](CC[C@@H]4[C@@]5(C)CC[C@H](O[C@@H]6OC[C@H](O)[C@H](O)[C@H]6O[C@@H]6O[C@@H](C)[C@H](O)[C@@H](O)[C@H]6O)[C@@](C)(CO)[C@@H]5CC[C@]43C)[C@@H]12 [B4, anemoside B4]
- release of IL-6 compared with the model group ([1]; 1 μM): significantly reduced
- release of IL-6 compared with the model group ([1]; 10 μM): significantly reduced
- release of TNF-α compared with the model group ([2]; 1 μM): significantly reduced
- release of TNF-α compared with the model group ([2]; 10 μM): significantly reduced
- colon length [3]: could restore the colon length
